# Results taken from ChEMBL document CHEMBL4052714, “Synthesis and antibacterial activity of novel 4″-O-(1-aralkyl-1,2,3-triazol-4-methyl-carbamoyl) azithromycin analogs” (2017).
# What was measured:
# Assay type in all cases: functional
# Streptococcus pneumoniae [1] = test: Antibacterial activity against erythromycin-resistant Streptococcus pneumoniae AB11 expressing ermB/mefA gene
# Escherichia coli = test: Antibacterial activity against Escherichia coli ATCC 25922
# Streptococcus pneumoniae [2] = test: Potency index, ratio of clarithromycin MIC to compound MIC for erythromycin-resistant Streptococcus pneumoniae B1 expressing ermB gene
# Streptococcus pyogenes [3] = test: Antibacterial activity against erythromycin-resistant Streptococcus pyogenes isolate R2
# Streptococcus pneumoniae [4] = test: Potency index, ratio of azithromycin MIC to compound MIC for erythromycin-resistant Streptococcus pneumoniae AB11 expressing ermB/mefA gene
# Streptococcus pneumoniae [5] = test: Antibacterial activity against erythromycin-resistant Streptococcus pneumoniae A22072 expressing mefA gene
# Streptococcus pneumoniae [6] = test: Potency index, ratio of clarithromycin MIC to compound MIC for erythromycin-resistant Streptococcus pneumoniae AB11 expressing ermB/mefA gene
# Pseudomonas aeruginosa = test: Antibacterial activity against Pseudomonas aeruginosa ATCC 27853
# Staphylococcus aureus [7] = test: Potency index, ratio of azithromycin MIC to compound MIC for erythromycin-susceptible Staphylococcus aureus ATCC 25923
# Streptococcus pneumoniae [8] = test: Potency index, ratio of clarithromycin MIC to compound MIC for erythromycin-resistant Streptococcus pneumoniae A22072 expressing mefA gene
# Streptococcus pyogenes [9] = test: Potency index, ratio of azithromycin MIC to compound MIC for erythromycin-resistant Streptococcus pyogenes isolate R2
# Streptococcus pneumoniae [10] = test: Potency index, ratio of azithromycin MIC to compound MIC for erythromycin-resistant Streptococcus pneumoniae A22072 expressing mefA gene
# Staphylococcus aureus [11] = test: Antibacterial activity against methicillin-susceptible Staphylococcus aureus ATCC 29213
# Streptococcus pneumoniae [12] = test: Antibacterial activity against erythromycin-susceptible Streptococcus pneumoniae ATCC 49619
# Streptococcus pyogenes [13] = test: Antibacterial activity against erythromycin-susceptible Streptococcus pyogenes isolate S2
# Streptococcus pneumoniae [14] = test: Potency index, ratio of azithromycin MIC to compound MIC for erythromycin-resistant Streptococcus pneumoniae B1 expressing ermB gene
# Staphylococcus aureus [15] = test: Antibacterial activity against erythromycin-susceptible Staphylococcus aureus ATCC 25923
# Streptococcus pyogenes [16] = test: Potency index, ratio of clarithromycin MIC to compound MIC for erythromycin-resistant Streptococcus pyogenes isolate R2
# Streptococcus pneumoniae [17] = test: Antibacterial activity against erythromycin-resistant Streptococcus pneumoniae B1 expressing ermB gene
smiles,measurement,setting,value
CC[C@H]1OC(=O)[C@H](C)[C@@H](O[C@H]2C[C@@](C)(OC)[C@@H](OC(=O)NCc3cn(Cc4ccc(Cl)cc4)nn3)[C@H](C)O2)[C@H](C)[C@@H](O[C@@H]2O[C@H](C)C[C@H](N(C)C)[C@H]2O)[C@](C)(O)C[C@@H](C)CN(C)[C@H](C)[C@@H](OC(=O)NCc2ccc(OC)cc2)[C@]1(C)O,MIC,Streptococcus pneumoniae [1],0.125 µg/mL
same,MIC,Escherichia coli,16 µg/mL
same,Ratio,Streptococcus pneumoniae [2],1024 - 2133
same,MIC,Streptococcus pyogenes [3],1 µg/mL
same,Ratio,Streptococcus pneumoniae [4],1024 - 2048
same,MIC,Streptococcus pneumoniae [5],0.06 µg/mL
same,Ratio,Streptococcus pneumoniae [6],1024 - 2048
same,MIC,Pseudomonas aeruginosa,8 µg/mL
same,Ratio,Staphylococcus aureus [7],31
same,Ratio,Streptococcus pneumoniae [8],32 - 133
same,Ratio,Streptococcus pyogenes [9],128
same,Ratio,Streptococcus pneumoniae [10],32 - 133
same,MIC,Staphylococcus aureus [11],16 µg/mL
same,MIC,Streptococcus pneumoniae [12],0.125 µg/mL
same,MIC,Streptococcus pyogenes [13],< 0.002 µg/mL
same,Ratio,Streptococcus pneumoniae [14],1024 - 2133
same,MIC,Staphylococcus aureus [15],0.008 µg/mL
same,Ratio,Streptococcus pyogenes [16],128
same,MIC,Streptococcus pneumoniae [17],0.125 µg/mL
